SMILES strings stand for the structures. Calls of active or inactive are those of the source. The rule behind the calls is not given here.

One data set concerns Plasmodium falciparum. Nature of the data set: Antimalarial activity against Plasmodium falciparum NF54 strain male gametes in human RBC assessed as induction of impairment of exflagellation of male gametes by dual gamete formation assay. Type of data set: functional, organism-based.
Details: not given
On to `O=S(=O)(NCC1(O)CCOc2ccccc21)c1ccc(Br)s1` (racemic), for which the concentration for a half-maximal effect (EC50) lay in the range of 130 to 292 nM. Still for that read-out and setting: the same measure for `O=S(=O)(NCC1(O)CCOc2cc(F)ccc21)c1cccc(Br)c1` (racemic): 79 nM; for `COC1(CNS(=O)(=O)c2cccc(Br)c2)CCOc2ccccc21` (racemic): 149 nM. Take `O=S(=O)(NCC1(O)CCOc2ccccc21)c1cccc(Br)c1` (racemic): the EC50 was found to be 128 nM. With `O=S(=O)(NCC1(O)CCOc2ccccc21)c1ccc(Br)s1` (single isomer, unassigned; (+)), the EC50 was above 1000 nM. Same read-out and setting: the same measure for `O=S(=O)(NCC1(O)CCOc2cc(F)ccc21)c1cccc(Br)c1` (single isomer, unassigned; (+)): above 1000 nM; for `COC1(CNS(=O)(=O)c2cccc(Br)c2)CCOc2ccccc21` (single isomer, unassigned; (+)): above 2000 nM; for `O=S(=O)(NCC1(O)CCOc2ccccc21)c1cccc(Br)c1` (single isomer, unassigned; (+)): above 2000 nM. Same read-out and setting: the same measure for `O=S(=O)(NCC1(O)CCOc2ccccc21)c1ccc(Br)s1` (single isomer, unassigned; (-)): 46 nM; for `O=S(=O)(NCC1(O)CCOc2cc(F)ccc21)c1cccc(Br)c1` (single isomer, unassigned; (-)): 51 nM; for `O=S(=O)(NCC1(O)CCOc2ccccc21)c1cccc(Br)c1` (stereo in doubt; (-)-6): 18 nM. Regarding `COC1(CNS(=O)(=O)c2cccc(Br)c2)CCOc2ccccc21` (stereo in doubt; (-)-74), the EC50 amounted to 59 nM.

The same data set, now with this note: Plasmodium falciparum, NF54.
For `O=S(=O)(NCC1=CCOc2ccccc21)c1ccc(Br)s1`, the EC50 was above 25000 nM. Still for that read-out and setting: the figure for `O=S(=O)(NCC1(O)CCOc2ccccc21)c1ccccc1Br` (racemic) is 344 to 367 nM; for `CC(=O)c1cccc(S(=O)(=O)NCC2(O)CCOc3ccccc32)c1` (racemic) it is above 20000 nM. Same read-out and setting: the same measure for `O=S(=O)(NCC1(O)CCOc2ccccc21)c1ccccc1` (racemic): 470 nM; for `O=S(=O)(NCC1(F)CCOc2ccccc21)c1cccc(Br)c1` (racemic): 945 nM; for `O=S(=O)(NCC1CCOc2ccccc21)c1ccc(Br)s1` (racemic): above 10000 nM. With `C=CCOc1ccc2c(c1)C(O)(CNS(=O)(=O)c1cccc(Br)c1)CCO2` (racemic), the EC50 was above 25000 nM.

For `O=S(=O)(NCC1(O)CCOc2ccc(Br)cc21)c1ccc(Br)s1` (racemic), the EC50 is above 1000 nM. On the same count and under the same terms, the figure for `O=S(=O)(NCC1(O)CCOc2ccccc21)c1ccccc1Cl` (racemic) is above 1000 nM.

Take `O=S(=O)(NCC1(O)CCOc2ccc(F)cc21)c1cccc(Br)c1` (racemic): the EC50 came out at 83 nM. Still for that read-out and setting: the figure for `O=S(=O)(NCC1(O)CCOc2ccccc21)c1ccc(Br)cc1` (racemic) is above 5000 nM. The same measure, in the same setting: the same measure for `COc1cccc2c1OCCC2(O)CNS(=O)(=O)c1ccc(Br)s1` (racemic): above 25000 nM; for `O=S(=O)(NCC1(O)CCOc2ccc(O)cc21)c1cccc(Br)c1` (racemic): above 10000 nM.

Turning to `O=S(=O)(NCC1(O)CCOc2ccc(Br)cc21)c1cccc(Br)c1` (racemic), the EC50 came out at 785 nM. For the compound `O=S(=O)(NCC1(O)CCOc2ccccc21)c1ccc(Cl)cc1` (racemic), the EC50 was above 1000 nM.

For `N#Cc1ccc(S(=O)(=O)NCC2(O)CCOc3ccccc32)cc1` (racemic), the EC50 was above 25000 nM. Turning to `COc1cccc2c1OCCC2(O)CNS(=O)(=O)c1cccc(Br)c1` (racemic), the half-maximal effective concentration (EC50) is above 25000 nM. `O=S(=O)(NCC1(O)CCOc2ccccc21)c1cccc(Cl)c1` (racemic): the EC50 worked out at 118 nM.

With `O=S(=O)(NCC1(O)CCOc2cc(F)ccc21)c1ccc(Br)s1` (racemic), the EC50 was determined as 364 nM.

Consider `O=S(=O)(NCC1(O)CCOc2ccc(F)cc21)c1ccc(Br)s1` (racemic), for which the EC50 was determined as 196 nM.

For `COC1(CNS(=O)(=O)c2ccc(Br)s2)CCOc2ccccc21` (racemic), the EC50 was 354 nM.

For `O=S(=O)(NCC1CCOc2ccccc21)c1cccc(Br)c1` (racemic), the EC50 was above 10000 nM. Turning to `O=S(=O)(NCC1(O)CC(c2ccccc2)Oc2ccccc21)c1cccc(Br)c1` (racemic), the 50% effective concentration (EC50) was above 25000 nM.

For the compound `COc1ccc(S(=O)(=O)NCC2(O)CCOc3ccccc32)cc1` (racemic), the EC50 was above 25000 nM. As to `O=S(=O)(NCC1(O)CC(c2ccccc2)Oc2ccccc21)c1ccc(Br)s1` (racemic), the EC50 was above 25000 nM. Still for that read-out and setting: the same measure for `O=S(=O)(NCC1(F)CCOc2ccccc21)c1ccc(Br)s1` (racemic): above 1000 nM; for `O=S(=O)(NCC1(O)CCOc2ccccc21)c1sccc1Br` (racemic): 212 nM.

Another data set relates to HepG2. Nature of the data set: Cytotoxicity against human HepG2 cells assessed as reduction in cell viability at 10 uM incubated for 48 hrs by Alamar Blue staining based fluorescence assay. As to conditions: hepg2, 48 h.
With `O=S(=O)(NCC1(O)CCOc2ccccc21)c1ccc(Br)s1` (racemic), the Activity entry is recorded as “Non-Toxic”.

For `O=S(=O)(NCC1(O)CCOc2cc(F)ccc21)c1cccc(Br)c1` (racemic), the Activity result is given as “Non-Toxic”. Same read-out and setting: the entry for `COC1(CNS(=O)(=O)c2cccc(Br)c2)CCOc2ccccc21` (racemic) is “Non-Toxic”. Regarding `O=S(=O)(NCC1(O)CCOc2ccccc21)c1cccc(Br)c1` (racemic), the Activity entry was “Non-Toxic”.

A further data set deals with HepG2. Nature of the data set: Cytotoxicity against human HepG2 cells assessed as reduction in cell viability at 50 uM incubated for 48 hrs by Alamar Blue staining based fluorescence assay. The class given is functional.
Details: not given
For `COc1cccc2c1C(=O)c1c(O)c3c(c(O)c1C2=O)C[C@@](O)(C(=O)CO)C[C@@H]3O[C@H]1C[C@H](N)[C@H](O)[C@H](C)O1`, the outcome was Active.

The subject of another data set is Plasmodium falciparum. The data set is described as follows: Antimalarial activity against Plasmodium falciparum NF54 strain male gametes in human RBC incubated for 48 hrs by dual gamete formation assay based HTS assay. The class given is functional, organism-based. As to conditions: NF54, 48 h.
Take `O=S(=O)(NCC1(O)CCOc2ccccc21)c1ccccc1Br` (racemic): the EC50 was 530 nM.

For the compound `O=S(=O)(NCC1(O)CCOc2ccccc21)c1ccc(Br)s1` (racemic), the EC50 came to 200 nM.

A further data set deals with Plasmodium falciparum. The data set is described as follows: Antimalarial activity against Plasmodium falciparum infected in mosquitoes assessed as inhibition of oocyst formation at 10 uM added 30 mins before mosquito feed by standard membrane feeding assay. Type of data set: functional.
Details: not given
Take `O=S(=O)(NCC1(O)CCOc2ccccc21)c1ccc(Br)s1` (racemic): the inhibition at 10 µM was 99%.
